Measured values published in patent publication US10092575B2, “Substituted thiophene- and furan-fused azolopyrimidine-5-(6H)-one compounds” (DART NEUROSCIENCE (CAYMAN) LTD., priority 2012, dated 2018).

Target: human PDE1b enzyme (Homo sapiens (Human), UniProt Q01064)
Assay: PDE1b inhibitory assay (IMAP TR-FRET)
Conditions: for PDE1b (pEC50): negative log of half-maximal molar inhibitory concentration, 200 nM FAM-cAMP, reported as ranges

Row | SMILES | EC50 | PDE1b (pEC50)
1 | O=c1n(Cc2ccccc2Cl)c2sccc2c2ncnn12 [Example 1, 6-(2-Chlorobenzyl)thieno[3,2-e][1,2,4]triazolo[1,5-c]pyrimidin-5(6H)-one] | 1000 to 10000 nM | –
2 | O=c1n(Cc2cccc(Cl)c2)c2sccc2c2ncnn12 [Example 2, 6-(3-Chlorobenzyl)thieno[3,2-e][1,2,4]triazolo[1,5-c]pyrimidin-5(6H)-one] | 1000 to 10000 nM | –
3 | Cc1csc2c1c1ncnn1c(=O)n2Cc1ccc(Cl)cc1 [Example 3, 6-(4-Chlorobenzyl)-9-methylthieno[3,2-e][1,2,4]triazolo[1,5-c]pyrimidin-5(6H)-one] | 100 to 1000 nM | –
4 | O=c1n(Cc2ccc(-c3ccccc3)cc2)c2sccc2c2ncnn12 [Example 4, 6-([1,1′-Biphenyl]-4-ylmethyl)thieno[3,2-e][1,2,4]triazolo[1,5-c]pyrimidin-5(6H)-one] | – | <5
5 | O=c1n(Cc2ccc(Cl)cc2)c2sccc2c2ncnn12 [Example 5, 6-(4-Chlorobenzyl)thieno[3,2-e][1,2,4]triazolo[1,5-c]pyrimidin-5(6H)-one] | 100 to 1000 nM | –
6 | Cc1csc2c1c1ncnn1c(=O)n2Cc1ccccc1 [Example 6, 6-Benzyl-9-methylthieno[3,2-e][1,2,4]triazolo[1,5-c]pyrimidin-5(6H)-one] | 100 to 1000 nM | –
7 | Cc1csc2c1c1ncnn1c(=O)n2Cc1ccc(-c2ccccc2)cc1 [Example 7, 6-([1,1′-Biphenyl]-4-ylmethyl)-9-methylthieno[3,2-e][1,2,4]triazolo[1,5-c]pyrimidin-5(6H)-one] | – | <5
8 | O=c1n(Cc2ccccc2Cl)c2sc(Cc3ccccc3)cc2c2ncnn12 [Example 8, 8-benzyl-6-(2-Chlorobenzyl)thieno[3,2-e][1,2,4]triazolo[1,5-c]pyrimidin-5(6H)-one] | 100 to 1000 nM | –
9 | O=c1n(Cc2cccc(Cl)c2)c2sc(Cc3ccccc3)cc2c2ncnn12 [Example 9, 8-Benzyl-6-(3-chlorobenzyl)thieno[3,2-e][1,2,4]triazolo[1,5-c]pyrimidin-5(6H)-one] | 100 to 1000 nM | –
10 | Cc1csc2c1c1ncnn1c(=O)n2Cc1ccccc1Cl [Example 10, 6-(2-Chlorobenzyl)-9-methylthieno[3,2-e][1,2,4]triazolo[1,5-c]pyrimidin-5(6H)-one] | 1000 to 10000 nM | –
11 | Cc1csc2c1c1ncnn1c(=O)n2Cc1cccc(Cl)c1 [Example 11, 6-(3-Chlorobenzyl)-9-methylthieno[3,2-e][1,2,4]triazolo[1,5-c]pyrimidin-5(6H)-one] | 100 to 1000 nM | –
12 | Cc1cc2c(s1)n(Cc1ccccc1)c(=O)n1ncnc21 [Example 12, 6-Benzyl-8-methylthieno[3,2-e][1,2,4]triazolo[1,5-c]pyrimidin-5(6H)-one] | 1000 to 10000 nM | –
13 | Cc1cc2c(s1)n(Cc1ccccc1Cl)c(=O)n1ncnc21 [Example 13, 6-(2-Chlorobenzyl)-8-methylthieno[3,2-e][1,2,4]triazolo[1,5-c]pyrimidin-5(6H)-one] | 1000 to 10000 nM | –
14 | Cc1cc2c(s1)n(Cc1ccc(-c3ccccc3)cc1)c(=O)n1ncnc21 [Example 14, 6-([1,1′-Biphenyl]-4-ylmethyl)-8-methylthieno[3,2-e][1,2,4]triazolo[1,5-c]pyrimidin-5(6H)-one] | – | <5
15 | Cc1cc2c(s1)n(Cc1ccc(Cl)cc1)c(=O)n1ncnc21 [Example 15, 6-(4-Chlorobenzyl)-8-methylthieno[3,2-e][1,2,4]triazolo[1,5-c]pyrimidin-5(6H)-one] | 100 to 1000 nM | –
16 | Cc1cc2c(s1)n(Cc1cccc(Cl)c1)c(=O)n1ncnc21 [Example 16, 6-(3-Chlorobenzyl)-8-methylthieno[3,2-e][1,2,4]triazolo[1,5-c]pyrimidin-5(6H)-one] | 1000 to 10000 nM | –

Row | SMILES | EC50 | PDE1b (pEC50)
17 | O=c1n(Cc2ccccc2)c2sc(Cc3ccccc3)cc2c2ncnn12 [Example 17, 6,8-Dibenzylthieno[3,2-e][1,2,4]triazolo[1,5-c]pyrimidin-5(6H)-one] | 100 to 1000 nM | –
18 | O=c1n(Cc2ccc(-c3ccccc3)cc2)c2sc(Cc3ccccc3)cc2c2ncnn12 [Example 18, 6-([1,1′-Biphenyl]-4-ylmethyl)-8-benzylthieno[3,2-e][1,2,4]triazolo[1,5-c]pyrimidin-5(6H)-one] | 1000 to 10000 nM | –
19 | CC(C)CCc1cc2c(s1)n(Cc1ccccc1Cl)c(=O)n1ncnc21 [Example 19, 6-(2-Chlorobenzyl)-8-isopentylthieno[3,2-e][1,2,4]triazolo[1,5-c]pyrimidin-5(6H)-one] | 1000 to 10000 nM | –
20 | CC(C)CCc1cc2c(s1)n(Cc1cccc(Cl)c1)c(=O)n1ncnc21 [Example 20, 6-(3-Chlorobenzyl)-8-isopentylthieno[3,2-e][1,2,4]triazolo[1,5-c]pyrimidin-5(6H)-one] | 1000 to 10000 nM | –
21 | CC(C)CCc1cc2c(s1)n(Cc1ccc(-c3ccccc3)cc1)c(=O)n1ncnc21 [Example 21, 6-([1,1′-Biphenyl]-4-ylmethyl)-8-isopentylthieno[3,2-e][1,2,4]triazolo[1,5-c]pyrimidin-5(6H)-one] | – | <5
22 | O=c1n(Cc2ccc(Cl)cc2)c2sc(Cc3ccccc3)cc2c2ncnn12 [Example 22, 8-Benzyl-6-(4-chlorobenzyl)thieno[3,2-e][1,2,4]triazolo[1,5-c]pyrimidin-5(6H)-one] | 100 to 1000 nM | –
23 | CC(C)CCc1cc2c(s1)n(Cc1ccc(Cl)cc1)c(=O)n1ncnc21 [Example 23, 6-(4-Chlorobenzyl)-8-isopentylthieno[3,2-e][1,2,4]triazolo[1,5-c]pyrimidin-5(6H)-one] | 100 to 1000 nM | –
24 | O=c1n(Cc2ccccc2)c2sccc2c2ncnn12 [Example 24, 6-Benzylthieno[3,2-e][1,2,4]triazolo[1,5-c]pyrimidin-5(6H)-one] | 1000 to 10000 nM | –
25 | CC(C)CCc1cc2c(s1)n(Cc1ccccc1)c(=O)n1ncnc21 [Example 25, 6-Benzyl-8-isopentylthieno[3,2-e][1,2,4]triazolo[1,5-c]pyrimidin-5(6H)-one] | 100 to 1000 nM | –
26 | Cc1sc2c(c1C)c1ncnn1c(=O)n2Cc1ccc(Cl)cc1 [Example 26, 6-(4-Chlorobenzyl)-8,9-dimethylthieno[3,2-e][1,2,4]triazolo[1,5-c]pyrimidin-5(6H)-one] | 100 to 1000 nM | –
27 | COc1ccc(Cn2c(=O)n3ncnc3c3ccsc32)cc1 [Example 27, 6-(4-Methoxybenzyl)thieno[3,2-e][1,2,4]triazolo[1,5-c]pyrimidin-5(6H)-one] | 100 to 1000 nM | –
28 | COc1ccc(Cn2c(=O)n3ncnc3c3c(C)csc32)cc1 [Example 28, 6-(4-Methoxybenzyl)-9-methylthieno[3,2-e][1,2,4]triazolo[1,5-c]pyrimidin-5(6H)-one] | 100 to 1000 nM | –
29 | COc1ccc(Cn2c(=O)n3ncnc3c3cc(CN4CCCOCC4)sc32)cc1 [Example 29, 8-((1,4-Oxazepan-4-yl)methyl)-6-(4-methoxybenzyl)thieno[3,2-e][1,2,4]triazolo[1,5-c]pyrimidin-5(6H)-one] | – | >7
30 | COc1ccc(Cn2c(=O)n3ncnc3c3cc(CN(C)C)sc32)cc1 [Example 30, 8-((Dimethylamino)methyl)-6-(4-methoxybenzyl)thieno[3,2-e][1,2,4]triazolo[1,5-c]pyrimidin-5(6H)-one] | 100 to 1000 nM | –
31 | COc1ccc(Cn2c(=O)n3ncnc3c3cc(CN4CCOCC4)sc32)cc1 [Example 31, 6-(4-Methoxybenzyl)-8-(morpholinomethyl)thieno[3,2-e][1,2,4]triazolo[1,5-c]pyrimidin-5(6H)-one] | – | >7
